Results as given in patent publication US20110250134A1, “SUSTAINED RELEASE NITRIC OXIDE FROM LONG LIVED CIRCULATING NANOPARTICLES” (priority 2010, published 2011).

Experiment: Total NO released (NO agents decomposition)
Assay type: physicochemical
Method: Total NO released (NO agents decomposition). Gaseous NO levels were measured using a chemiluminescent NO analyzer (Sievers NO analyzer, Model 280i, Boulder, Colo.). […] Solutions were continuously bubbled with pure nitrogen (0.2 L/min). The gas phase was collected into the NO analyzer for a minute every 10 min., and the excess flow was evacuated through an underwater seal (1 cm H2O).

Structure (SMILES)	NO liberated experimentally
NCCN(CCN)/[N+]([O-])=N/O [DETA NONOate, Diethylenetriamine NONOate]	10.7 μmols of NO/mg
NCCCN(CCCN)/[N+]([O-])=N/O [DPTA NONOate, Dipropylenetriamine NONOate]	9.4 µmol/mg
